“Also recorded” adds a separate entry of the source.
Assay: Plasma concentration of metoclopramide 30 minutes post-dose, Visit 3 (single dose) and Visit 7 (steady state)
Format: in vivo, human
Conditions: 10 mg and 14 mg IN, Visit 3 and Visit 7, 30 minutes post-dose
Method: Pharmacokinetic (PK) blood samples for the determination of metoclopramide concentration were obtained from all subjects on Visit 3, Day 0 (pre-dose and 30 minutes after dosing [single dose]) and at the Final Visit (Day 28) 30 minutes post-dose (steady state).
Pharmacokinetics: The pharmacokinetics (PK) of the study drug was evaluated in all subjects. FIG. 1 summarizes PK data (blood plasma concentration of metoclopramide in ng/mL) for both Treatment Arms (10 mg and 14 mg, intranasal) on visit 3 and visit 7. Individual data are represented by circles and the arithmetic mean and geometric mean of each group is represented by lines. (In each case, the upper line represents the arithmetic mean and the lower line represents the geometric mean.) In FIG. 2, the PK data are analyzed by gender.

CCN(CC)CCNC(=O)c1cc(Cl)c(N)cc1OC [metoclopramide, -amino-5-chloro-N-(2-(diethylamino)ethyl)-2-methoxybenzamide]
Difference in PK data (blood plasma concentration) between females and males: no statistical difference; also recorded: not statistically significant

— patent US20200405666A9, “TREATMENT OF SYMPTOMS ASSOCIATED WITH FEMALE GASTROPARESIS” (priority 2011, published 2020)
